Test results as given in EP4382122A1, “PEPTIDE COMPLEX IPF-H2A FOR MODULATION IMMUNE FUNCTION OF THE HUMAN BODY” (Zhabilov, Harry H., priority 2022, dated 2024).
Like-named read-outs stand apart in the source and are kept apart here.

Tests used:
Vero cells [1] = experiment: Cytotoxicity on Vero cells, microscopic observation of cell monolayer morphology; conditions: 72 h
Procedure: For analysis of the anti-proliferative and potentially antiviral properties of the IPF-H2A complex, according to the present invention, in cell culture, IPF-H2A was dissolved to an initial concentration of 50 mg/ml (background solution). Using the solution, a series of dilutions are done ex tempore with a nutrient medium DMEM (Dulbecco's Modified Eagle Medium, Sigma-Aldrich, Germany), which includes 2% fetal bovine serum (FBS, Gibco) and 1% antibiotic solution (100 U/ml penicillin and 100 µg/ml streptomycin sulphate (Gibco, USA)) (working solutions), which solutions are then filtered through sterile antibacterial filters with a pore diameter of 0.45 µm. As a model system in the tests was used a kidney monolayer cell line of African Green Monkey (Cercopithecus aethiops). […]

HSV-1 (Victoria strain) [2] = experiment: Infectious viral yield of HSV-1 in Vero cells (Reed and Muench titration)
Procedure: (§1) Viral strains were cultured in DMEM nutrient medium containing 2% FBS,1% antibiotic solution (100 U/ml penicillin G sodium and 100 µg/ml streptomycin sulphate).
(§2) Infectious virus titer was account for, also by Reed and Muench's method of final dilutions, and expressed as TCID50 (50% Tissue Culture Infectious Dose) and also quantitatively through the colorimetric MTT method. After triple freezing and thawing, the resulting virus- containing was centrifuged (2500 rpm/min, 15 min at 4 °C), aliquoted and frozen at -80°C.
(§3) Immediately prior to work, ten-fold logarithmic dilutions of the relevant virus strain were prepared in DMEM nutrient medium containing 2% FBS, 1% antibiotic solution (100 U/mL penicillin G sodium and 100 µg/mL streptomycin sulphate). When the cell monolayer reached between 70- 80% confluence (concentration 5 × 10^3 cells/well, usually after 24 h), the nutrient medium was removed from the wells. The cell monolayer was infected with the prepared viral dilutions of 0.1 mL. With each viral dilution, 4 wells were infected. The virus was adsorbed for 1 h ina thermostat at a temperature of 37°C, then to each well was added 0.1 mL of nutrient medium. Four wells containing uninfected cells were used for cell control. Thus treated plate was incubated in a thermostat at a temperature of 37°C and at the required humidity. In the event of a cytopathic effect (CPE) (appearance of round cells, unevenly disseminated in the cell monolayer, with a tendency to formfoci), it was waited until the development of 2-3 + (50 - 75% of the cell monolayer) or until it stopped progressing. The viral infection titer is expressed as TCID50 (50% Tissue Culture Infectious Dose). The presence or absence of a viral cytopathic effect is determined by the following formula: T = (logofdilution,where%infectedisover50%) + (proportionalityfactor×logofdilutionfactor). […] Proportionality factor = [(%infectedover50%)−50%][(%infectedover50%)−(% infected below; 50%)].
(§4) Extracellular virus samples were titrated in a 24-hour Vero monolayer in 96-well plates, by taking into account the infectious viral titer in log10, according to the final dilution method of Reed & Muenh. Differences in infectious viral titers between experimental and control samples are expressed as Δlog. Based on the reported results, dose-response graphs were plotted and minimum inhibitory concentrations 50 (MIC50) were determined. Values of Δlog10 ≥ 1 are considered to be reliable results for the performed tests.

HSV-1/HSV-2 [3] = experiment: CPE inhibition test, microscopic, HSV-1/HSV-2 in Vero cells (type not separated); type: cell-based; conditions: infected Vero cells, at MNC, 72 hours of treatment
Procedure: Dose-dependent curves were derived to determine the inhibitory concentration leading to 50% inhibition of the viral cytopathic effect (IC50).
Initially, the antiviral activity of the IPF test substance was assessed by a CPE inhibition test. […] Cell cultures were observed daily under a light microscope as to theCPE development. […] The results of the experiments were evaluated on the basis of comparison with virus-free and no-added cells (cell control),and with cells infected with HSV-1/HSV-2 without substance addition (viral control).

HSV-1 (Victoria strain) [4] = experiment: CPE inhibition test with MTT Assay, HSV-1 in Vero cells; type: cell-based, Herpes Simplex virus type 1 (HSV-1)
HSV-2 (Bja strain) = experiment: Infectious viral yield of HSV-2 in Vero cells (Reed and Muench titration)
Procedure: as §1, §2, §3, §4

HSV-1/HSV-2 [5] = experiment: Infectious viral yield, HSV-1/HSV-2 in Vero cells (text, type not separated); type: cell-based
Vero cells [6] = experiment: Cytotoxicity on Vero cells, MTT Assay; conditions: 72 h
Procedure: Using the solution, a series of dilutions are done ex tempore with a nutrient medium DMEM (Dulbecco's Modified Eagle Medium, Sigma-Aldrich, Germany), which includes 2% fetal bovine serum (FBS, Gibco) and 1% antibiotic solution (100 U/ml penicillin and 100 µg/ml streptomycin sulphate (Gibco, USA)) (working solutions), which solutions are then filtered through sterile antibacterial filters with a pore diameter of 0.45 µm. As a model system in the tests was used a kidney monolayer cell line of African Green Monkey (Cercopithecus aethiops).
Cells were cultured on DMEM nutrient medium with termoinactivated 10% FBS, 1% sodium pyruvate (Sigma- Aldrich, Germany) and antibiotics (penicillin (100 U/ml), streptomycin sulphate (100 µg/ml) (growingmedium). The cell cultures were incubated at 37 °C at 5% CO2 and the required humidity. The blending of the Vero cells was done at 1:3 - 1:5 at a density of about 2 × 10^5 cells/ml, then resuspended several times and transferred onto cell culture mattresses (25 cm^2). Before inoculating the cells with virus and/or IPF-H2A dilutions, the monolayer was washed three times with phosphate-buffered saline (PBS) with pH 7.4 for 1- 2 minutes, after which the solution was removed. All experiments were performed during the exponential phase of cell growth. […]

[7] = test system: human embryonic lung (Lep) cell line; experiment: Cytotoxicity on Lep cells, MTT test; design: CD50: unit not given beside the values
HCoV-229E [8] = type: cell-based, human coronavirus HCoV-229E; conditions: for Δlog10: HCoV-229E, vs virus control
HCoV-229E [9] = type: cell-based, human coronavirus HCoV-229E
[10] = test system: human embryonic lung (Lep) cell line; experiment: Cytotoxicity on Lep cells, microscopic surveillance of cell monolayer morphology; conditions: 96 hours
Procedure: As a model system is used monolayer of human embryonic lung (Lep) cell line. The cells are cultivated in DMEM with added thermally inactivated 10% FBS, 1% Sodium pyruvate (Sigma-Aldrich, Germany) and antibiotics (penicillin- 100 U/ml), streptomycin sulphate (100 µg/ml) (growth medium) and the cell cultures are incubated at 37°C in 5% CO2 and in the presence of the required humidity.
MTT analysis of the cell survival and proliferation was performed in a wide range of concentrations of the tested substance. […] The test substance is applied in concentration range 0.0001- 1 mg/ml, while the anti-nfluenza medicine Tamiflu® - 0.001- 7.5 mg/ml for 96 hours. The untreated Lep cells whose survival was accepted as 100%, were used as a negative control. […] The analysis of the cell morphology surveillance is synchronized with the MTT analysis of the cell surveillance.

## Nc1nc2c(ncn2COCCO)c(=O)[nH]1 [ACV, 2-amino-1,9-dihydro-9-((2-hydroxyethoxy)methyl)-6H-purin-6-one]
Vero cells [1]
  CD50: 0.5 ± 0.02 mg/mL
HSV-1 (Victoria strain) [2]; concentration 0.0005 mg/mL
  Viral yield (log10 TCID50): 4.500 ± 0.763 log10 TCID50
  Δlog10: 0.8
HSV-1 (Victoria strain) [2]; concentration 0.005 mg/mL
  Viral yield (log10 TCID50): 4.530 ± 0.166 log10 TCID50
  Δlog10: 0.8
HSV-1 (Victoria strain) [2]; concentration 0.05 mg/mL
  Viral yield (log10 TCID50): 4.300 ± 0.763 log10 TCID50
  Δlog10: 1.0
HSV-1 (Victoria strain) [2]; concentration 0.1 mg/mL
  Viral yield (log10 TCID50): 4.000 ± 0.288 log10 TCID50
  Δlog10: 1.6
HSV-1 (Victoria strain) [2]; concentration 1 mg/mL
  Viral yield (log10 TCID50): 2.7 ± 0.500 log10 TCID50
  Δlog10: 2.6
HSV-1/HSV-2 [3]
  CPE suppression of HSV-1/HSV-2: less pronounced CPE inhibitory effect
HSV-1 (Victoria strain) [4]; HSV-1 (Victoria strain), Vero cells, MTT Assay
  % cellular protection at MNC: 100%
HSV-1 (Victoria strain) [4]; HSV-1 strain Victoria, concentration range of 0.0005- 0.01 mg/mL
  protection: 100%
HSV-2 (Bja strain); concentration 0.0005 mg/mL
  Viral yield (log10 TCID50): 5.567 ± 0.000 log10 TCID50
HSV-2 (Bja strain); concentration 0.005 mg/mL
  Viral yield (log10 TCID50): 5.300 ± 0.288 log10 TCID50
  Δlog10: 0.8
HSV-2 (Bja strain); concentration 0.05 mg/mL
  Viral yield (log10 TCID50): 4.500 ± 0.125 log10 TCID50
  Δlog10: 1.0
HSV-2 (Bja strain); concentration 0.1 mg/mL
  Viral yield (log10 TCID50): 4.300 ± 0.237 log10 TCID50
  Δlog10: 1.0
HSV-2 (Bja strain); concentration 1 mg/mL
  Viral yield (log10 TCID50): 4.005 ± 0.166 log10 TCID50
  Δlog10: 1.3
HSV-1/HSV-2 [5]
  concentration range that effectively inhibits the yield of infectious viral progeny / replication: 0.00001 to 1 mg/mL
Vero cells [6]
  CD50: 0.5 ± 0.1 mg/mL

## CCOC(=O)C1=C[C@@H](OC(CC)CC)[C@H](NC(C)=O)[C@@H](N)C1 [Tamiflu, oseltamivir phosphate]
[7]; 96 hours, MTT test
  CD50: 2.5 ±0.06
  MNC: 0.005 ± 0.15 mg/mL
[7]; comparison of cell survival data
  toxicity relative to IPF-H2A peptide complex: twentyfold more toxic
HCoV-229E [8]
  concentration range that effectively inhibits the infectious viral yield / replication: 0.00001 to 1 mg/mL
HCoV-229E [8]; concentration 0.0001 mg/ml
  Δlog10: 0.8
HCoV-229E [8]; concentration 0.001 mg/ml
  Δlog10: 1.3
HCoV-229E [8]; concentration 0.01 mg/ml
  Δlog10: 1.3
HCoV-229E [8]; concentration 0.1 mg/ml
  Δlog10: 1.3
HCoV-229E [8]; concentration 1.0 mg/ml
  Δlog10: 1.8
HCoV-229E [9]
  inhibition of CPE of HCoV-229E: Less expressed CPE inhibition
[10]
  CD50: 2.5 ±0.02
  MNC: 0.001 ± 0.6 mg/mL
